Data as given in US20160326142A1, “PYRAZOLE CARBOXAMIDE COMPOUNDS, COMPOSITIONS AND METHODS OF USE” (Genentech, Inc., priority 2012, published 2016).

Molecular target: T1, ITK (Homo sapiens, UniProt Q08881)
T1 construct: purchased Invitrogen PV3875
T1 sequence (Q08881 1-620): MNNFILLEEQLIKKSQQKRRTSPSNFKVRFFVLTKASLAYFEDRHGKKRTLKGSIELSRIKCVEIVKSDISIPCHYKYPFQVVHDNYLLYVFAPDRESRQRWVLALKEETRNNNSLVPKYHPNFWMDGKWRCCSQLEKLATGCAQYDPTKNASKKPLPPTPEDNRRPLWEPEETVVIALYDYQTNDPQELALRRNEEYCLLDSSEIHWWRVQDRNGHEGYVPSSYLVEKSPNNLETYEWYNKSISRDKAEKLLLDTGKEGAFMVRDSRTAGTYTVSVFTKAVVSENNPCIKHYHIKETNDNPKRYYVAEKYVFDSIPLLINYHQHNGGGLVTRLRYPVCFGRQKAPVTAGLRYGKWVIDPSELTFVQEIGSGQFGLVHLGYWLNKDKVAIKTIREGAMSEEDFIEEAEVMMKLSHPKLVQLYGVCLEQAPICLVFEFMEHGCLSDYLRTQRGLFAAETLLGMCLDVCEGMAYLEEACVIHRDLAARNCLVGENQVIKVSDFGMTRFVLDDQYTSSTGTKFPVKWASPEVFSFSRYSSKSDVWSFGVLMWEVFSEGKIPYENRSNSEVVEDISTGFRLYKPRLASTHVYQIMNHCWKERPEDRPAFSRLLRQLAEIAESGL
Assay: ITK enzyme assay (Caliper or LCMS peptide phosphorylation)
Format: biochemical
Conditions: purified ITK (Invitrogen PV3875), 20 μM ATP, Ki by Morrison's quadratic equation
Summary of the method: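 Purified human ITK peptide phosphorylation, quenched with EDTA (50 mM final) for Caliper LabChip separation or TCA (5% v/v final) for UPLC-MS/MS MRM quantification. Ki derived via Morrison tight-binding equation, corrected for competitive inhibition using ATP concentration relative to Km,app.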

**Q.** Which Ki does the source give for `CC1(C)CCc2c(C(=O)Nc3cnn(C(c4ccccc4)C4CCOCC4)c3)n[nH]c2C1` (single isomer, unassigned) [Example 113a, 6,6-dimethyl-N-(1-(phenyl(tetrahydro-2H-pyran-4-yl)methyl)-1H-pyrazol-4-yl)-4,5,6,7-tetra hydro-1H-indazole-3-carboxamide] here?
**A.** Its Ki is 5 nM.

**Q.** Which Ki does the source give for `CC1(C)CCc2c(C(=O)Nc3cnn(C(CCC#N)c4cccnc4)c3)n[nH]c2C1` (single isomer, unassigned) [Example 80a, N-(1-(3-cyano-1-(pyridin-3-yl)propyl)-1H-pyrazol-4-yl)-6,6-dimethyl-4,5,6,7-tetrahydro-1H-indazole-3-carboxamide] here?
**A.** Its Ki is 2 nM.

**Q.** For `CC1(C)CCc2c(C(=O)Nc3cnn(C(CN4CCOCC4=O)c4ccccc4)c3)n[nH]c2C1` (single isomer, unassigned) [Example 77b, 6,6-dimethyl-N-(1-(2-(3-oxomorpholino)-1-phenylethyl)-1H-pyrazol-4-yl)-4,5,6,7-tetrahydro-1H-indazole-3-carboxamide], which Ki is on record?
**A.** Its Ki is 2 nM.

**Q.** How did the Ki turn out when `CN(C)CC(c1ccccc1)n1cc(NC(=O)c2n[nH]c3c2CC2CC2(C)C3)cn1` (single isomer, unassigned) [Example 68a, N-(1-(2-(dimethylamino)-1-phenylethyl)-1H-pyrazol-4-yl)-5a-methyl-1,4,4a,5,5a,6-hexahydrocyclopropa[f]indazole-3-carboxamide] was run?
**A.** Its Ki is 0.2 nM.

**Q.** `C#CC1(C)CCc2c(C(=O)Nc3cnn(Cc4ccccc4)c3)n[nH]c2C1` (single isomer, unassigned) [Example 130b, N-(1-benzyl-1H-pyrazol-4-yl)-6-ethynyl-6-methyl-4,5,6,7-tetrahydro-1H-indazole-3-carboxamide] was tested. Which Ki did it give?
**A.** Its Ki is 2 nM.

**Q.** `CC12Cc3[nH]nc(C(=O)Nc4cnn(C(CCS(C)(=O)=O)c5ccccc5)c4)c3CC1C2` (centres unmarked) [Example 69a, 5a-methyl-N-(1-(3-(methylsulfonyl)-1-phenylpropyl)-1H-pyrazol-4-yl)-1,4,4a,5,5a,6-hexahydrocyclopropa[f]indazole-3-carboxamide] was tested. Which Ki did it give?
**A.** The Ki was 2 nM.

**Q.** How did the Ki turn out when `CC1(C)CCc2c(C(=O)Nc3cnn(C(c4cccnc4)C4CCCCS4(=O)=O)c3)n[nH]c2C1` (single isomer, unassigned) [Example 144a, N-(1-((1,1-dioxidotetrahydro-2H-thiopyran-2-yl)(pyridin-3-yl)methyl)-1H-pyrazol-4-yl)-6,6-dimethyl-4,5,6,7-tetrahydro-1H-indazole-3-carboxamide] was run?
**A.** The Ki was 0.1 nM.

**Q.** Which Ki does the source give for `CC1(C)Cc2[nH]nc(C(=O)Nc3cnn(Cc4ccccc4)c3)c2CC1CO` (single isomer, unassigned) [Example 95a, N-(1-benzyl-1H-pyrazol-4-yl)-5-(hydroxymethyl)-6,6-dimethyl-4,5,6,7-tetrahydro-1H-indazole-3-carboxamide] here?
**A.** Its Ki is 5 nM.

**Q.** With `CCn1cc(C(C)n2cc(NC(=O)c3n[nH]c4c3CCC(C)(C)C4)cn2)cn1` (single isomer, unassigned) [Example 100a, N-(1-(1-(1-ethyl-1H-pyrazol-4-yl)ethyl)-1H-pyrazol-4-yl)-6,6-dimethyl-4,5,6,7-tetrahydro-1H-indazole-3-carboxamide] as the compound, how does the Ki read?
**A.** Its Ki is 17 nM.

**Q.** How did the Ki turn out when `CN(C)CCC(c1cccc(C(F)(F)F)c1)n1cc(NC(=O)c2n[nH]c3c2CCC(C)(C)C3)cn1` (single isomer, unassigned) [Example 30b, N-(1-(3-(dimethylamino)-1-(3-(trifluoromethyl)phenyl)propyl)-1H-pyrazol-4-yl)-6,6-dimethyl-4,5,6,7-tetrahydro-1H-indazole-3-carboxamide] was run?
**A.** Its Ki is 4 nM.

**Q.** For `CC1CCc2[nH]nc(C(=O)Nc3cnn(Cc4ccccc4)c3)c2C1` (single isomer, unassigned) [Example 8b, N-(1-benzyl-1H-pyrazol-4-yl)-5-methyl-4,5,6,7-tetrahydro-1H-indazole-3-carboxamide], which Ki is on record?
**A.** Its Ki is 77 nM.

**Q.** For `CC12Cc3c(C(=O)Nc4cnn(C(c5ccccc5)C5CCS(=O)(=O)CC5)c4)n[nH]c3C1C2` (single isomer, unassigned) [Example 152a, N-(1-((1,1-dioxidotetrahydro-2H-thiopyran-4-yl)(phenyl)methyl)-1H-pyrazol-4-yl)-4a-methyl-4,4a,5,5a-tetrahydro-1H-cyclopropa[4,5]cyclopenta[1,2-c]pyrazole-3-carboxamide], which Ki is on record?
**A.** The Ki was 42 nM.

**Q.** For `CN(C)CCC(c1ccccc1)n1cc(NC(=O)c2n[nH]c3c2C2CC2CC3)cn1` (single isomer, unassigned) [Example 26a, N-(1-(3-(dimethylamino)-1-phenylpropyl)-1H-pyrazol-4-yl)-3,4,5,5a,6,6a-hexahydrocyclopropa[e]indazole-1-carboxamide], which Ki is on record?
**A.** The Ki was 2 nM.

**Q.** `CN1CC(C(c2ccccc2)n2cc(NC(=O)c3n[nH]c4c3CCC(C)(C)C4)cn2)CN(C)C1=O` (single isomer, unassigned) [Example 129a, N-(1-((1,3-dimethyl-2-oxohexahydropyrimidin-5-yl)(phenyl)methyl)-1H-pyrazol-4-yl)-6,6-di methyl-4,5,6,7-tetrahydro-1H-indazole-3-carboxamide] was tested. Which Ki did it give?
**A.** The Ki was 0.7 nM.

**Q.** `CC1(C)Cc2[nH]nc(C(=O)Nc3cnn(Cc4ccccc4)c3)c2CC1C#N` (single isomer, unassigned) [Example 90b, N-(1-benzyl-1H-pyrazol-4-yl)-5-cyano-6,6-dimethyl-4,5,6,7-tetrahydro-1H-indazole-3-carboxamide] was tested. Which Ki did it give?
**A.** Its Ki is 10 nM.

**Q.** `CC1(C)CCc2c(C(=O)Nc3cnn(C(c4ccccc4)C4CCN(CCF)CC4)c3)n[nH]c2C1` (single isomer, unassigned) [Example 63a, N-(1-((1-(2-fluoroethyl)piperidin-4-yl)(phenyl)methyl)-1H-pyrazol-4-yl)-6,6-dimethyl-4,5,6,7-tetrahydro-1H-indazole-3-carboxamide] was tested. Which Ki did it give?
**A.** The Ki was 0.1 nM.

**Q.** `CN(C)CCC(c1ccccc1)n1cc(NC(=O)c2n[nH]c3c2CC2CC2C3)cn1` (single isomer, unassigned) [Example 28b, N-(1-(3-(dimethylamino)-1-phenylpropyl)-1H-pyrazol-4-yl)-1,4,4a,5,5a,6-hexahydrocyclopropa[f]indazole-3-carboxamide] was tested. Which Ki did it give?
**A.** The Ki was 6 nM.

**Q.** How did the Ki turn out when `CC1(C)CCc2c(C(=O)Nc3cnn(C(c4ccccc4)C4CNCCS4(=O)=O)c3)n[nH]c2C1` (single isomer, unassigned) [Example 127a] was run?
**A.** Its Ki is 0.2 nM.

**Q.** Which Ki does the source give for `O=C(Nc1cnn(Cc2ccccc2)c1)c1n[nH]c2c1CCC1(CCCC1=O)C2` (single isomer, unassigned) [Example 105a, N-(1-benzyl-1H-pyrazol-4-yl)-2-oxo-1′,4′,5′,7′-tetrahydrospiro[cyclopentane-1,6′-indazole]-3′-carboxamide] here?
**A.** The Ki was 3 nM.

**Q.** With `CC1(C)CCc2c(C(=O)Nc3cnn(C(c4ccccc4)C(C)(C)O)c3)n[nH]c2C1` (single isomer, unassigned) [Example 55a, N-(1-(2-hydroxy-2-methyl-1-phenylpropyl)-1H-pyrazol-4-yl)-6,6-dimethyl-4,5,6,7-tetrahydro-1H-indazole-3-carboxamide] as the compound, how does the Ki read?
**A.** The Ki was 5 nM.

**Q.** Which Ki does the source give for `CN(C)CC(c1ccccc1)n1cc(NC(=O)c2n[nH]c3c2CC2CC2(C)C3)cn1` (single isomer, unassigned) [Example 68b, N-(1-(2-(dimethylamino)-1-phenylethyl)-1H-pyrazol-4-yl)-5a-methyl-1,4,4a,5,5a,6-hexahydrocyclopropa[f]indazole-3-carboxamide] here?
**A.** Its Ki is 4 nM.

**Q.** With `CC1(C)Cc2[nH]nc(C(=O)Nc3cnn(C(CS(C)(=O)=O)c4cccnc4)c3)c2C1` (single isomer, unassigned) [Example 97b, 5,5-dimethyl-N-(1-(2-(methylsulfonyl)-1-(pyridin-3-yl)ethyl)-1H-pyrazol-4-yl)-1,4,5,6-tetrahydrocyclopenta[c]pyrazole-3-carboxamide] as the compound, how does the Ki read?
**A.** The Ki was 6 nM.

**Q.** `O=C(Nc1cnn(Cc2ccccc2)c1)c1n[nH]c2c1CCC1(CCCO1)C2` (single isomer, unassigned) [Example 50a, N-(1-benzyl-1H-pyrazol-4-yl)-1′,4,4′,5,5′,7′-hexahydro-3H-spiro[furan-2,6′-indazole]-3′-carboxamide] was tested. Which Ki did it give?
**A.** Its Ki is 260 nM.

**Q.** For `CC1(C)CCc2c(C(=O)Nc3cnn(C(c4ccccc4)C(C)(C)O)c3)n[nH]c2C1` (single isomer, unassigned) [Example 55b, N-(1-(2-hydroxy-2-methyl-1-phenylpropyl)-1H-pyrazol-4-yl)-6,6-dimethyl-4,5,6,7-tetrahydro-1H-indazole-3-carboxamide], which Ki is on record?
**A.** Its Ki is 18 nM.

**Q.** For `CC12Cc3[nH]nc(C(=O)Nc4cnn(C(c5cccnc5)C5CS(=O)(=O)C5)c4)c3CC1C2` (single isomer, unassigned) [Example 116a, N-(1-((1,1-dioxidothietan-3-yl)(pyridin-3-yl)methyl)-1H-pyrazol-4-yl)-5a-methyl-1,4,4a,5,5a,6-hexahydrocyclopropa[f]indazole-3-carboxamide], which Ki is on record?
**A.** The Ki was less than 0.1 nM.

**Q.** For `Cn1cc(C(c2ccccc2)n2cc(NC(=O)c3n[nH]c4c3CC3CC3C4)cn2)cn1` (single isomer, unassigned) [Example 27b, N-(1-((1-methyl-1H-pyrazol-4-yl)(phenyl)methyl)-1H-pyrazol-4-yl)-1,4,4a,5,5a,6-hexahydro cyclopropa[f]indazole-3-carboxamide], which Ki is on record?
**A.** The Ki was 11 nM.
